{"source": "patent US20240418735A1", "about": "“Methods and Kits for Determining Insulin Resistance Treatment” (Scimar Ltd., priority 2021, published 2024)", "key": {"[1]": {"tested_on": "MIS (Meal-induced Insulin Sensitization)", "test": "RIST index / % MIS before and 90 minutes after a mixed liquid meal in sucrose-supplemented rats", "assay_type": "in vivo", "conditions": "for restoration of MIS on increasing the dose: increased doses of either NAC or BE, sucrose-supplemented rats", "from_the_text": "While the present invention is not limited to a particular model or mechanism of action, it appears the response to feeding results in the release of acetylcholine which activates muscarinic receptors in the liver. This activation leads to increased production of nitric oxide which stimulates guanyl cyclase activity, resulting in increased levels of cyclic guanosine monophosphate which acts in stimulating the release of hepatalin from the liver. Meal-induced insulin […] (MIS) results from insulin-induced secretion of hepatalin which can only occur if the liver receives two permissive feeding signals. Absence of either signal blocks the ability of insulin to trigger hepatalin secretion. The combination of bethanechol and N-acetylcystelne (BENAC) mimics the 2 signals.\nFIG. 1 is a chart showing BENAC synergistic treatment of AMIS. The % MIS (hepatalin/insulin action×100%) calculated from the RIST index in 24 hour fasted anaesthetized rats determined before and 90 minutes after intragastric injection of a mixed liquid meal in a normal control group and in four groups that had been treated with nine weeks of sucrose supplementation."}, "hepatalin secretion": {"tested_on": "hepatalin secretion", "conditions": "one dose given before a test meal; rats on sucrose supplemented diet, 9 weeks; cited from earlier work"}, "GSH": {"tested_on": "GSH", "test": "GSH levels in sucrose-supplemented rats", "assay_type": "in vivo", "conditions": "nine weeks of sucrose supplementation"}}, "data": [{"smiles": "CC(C[N+](C)(C)C)OC(N)=O", "note": "(stereo not shown) [Bethanechol]", "values": [{"measurement": "restoration of MIS (% MIS calculated from the RIST index)", "setting": "[1]; 24 hour fasted anaesthetized rats, nine weeks of sucrose supplementation, before and 90 minutes after intragastric mixed liquid meal", "value": "modest restoration of MIS"}, {"measurement": "restoration of MIS on increasing the dose", "setting": "[1]", "value": "restored MIS to levels seen after feeding but not above"}, {"measurement": "ability of insulin to stimulate hepatalin secretion", "setting": "hepatalin secretion", "value": "ineffective"}]}, {"smiles": "CC(=O)N[C@@H](CS)C(=O)O", "note": "[N-acetyl cysteine]", "values": [{"measurement": "GSH levels", "setting": "GSH", "value": "elevated GSH levels to that seen after feeding"}, {"measurement": "effect on the RIST index", "setting": "[1]; 24 hour fasted anaesthetized rats, nine weeks of sucrose supplementation", "value": "no effect"}, {"measurement": "restoration of MIS on increasing the dose", "setting": "[1]", "value": "restored MIS to levels seen after feeding but not above"}, {"measurement": "ability of insulin to stimulate hepatalin secretion", "setting": "hepatalin secretion", "value": "ineffective"}]}]}
